From patent US8173631B2, “Cyclic amine compounds” (Daiichi Sankyo Company, Limited, priority 2008, dated 2012)
Blank lines part the entries; values can stand above or below the compound they belong to.

Tests used:
[1] = target: T1, human calcium-sensing receptor (CaSR) (Homo sapiens, UniProt P41180); test: Inhibitory activity on calcium-sensing receptor (CaSR), intracellular calcium increase as indicator (FLIPR, CHO/hCaSR); type: cell-based; conditions: CHO cells stably expressing human CaSR; inhibition of intracellular Ca increase induced by extracellular CaCl2
T1 construct: expressed in transfected cells
T1 sequence (P41180 20-1078): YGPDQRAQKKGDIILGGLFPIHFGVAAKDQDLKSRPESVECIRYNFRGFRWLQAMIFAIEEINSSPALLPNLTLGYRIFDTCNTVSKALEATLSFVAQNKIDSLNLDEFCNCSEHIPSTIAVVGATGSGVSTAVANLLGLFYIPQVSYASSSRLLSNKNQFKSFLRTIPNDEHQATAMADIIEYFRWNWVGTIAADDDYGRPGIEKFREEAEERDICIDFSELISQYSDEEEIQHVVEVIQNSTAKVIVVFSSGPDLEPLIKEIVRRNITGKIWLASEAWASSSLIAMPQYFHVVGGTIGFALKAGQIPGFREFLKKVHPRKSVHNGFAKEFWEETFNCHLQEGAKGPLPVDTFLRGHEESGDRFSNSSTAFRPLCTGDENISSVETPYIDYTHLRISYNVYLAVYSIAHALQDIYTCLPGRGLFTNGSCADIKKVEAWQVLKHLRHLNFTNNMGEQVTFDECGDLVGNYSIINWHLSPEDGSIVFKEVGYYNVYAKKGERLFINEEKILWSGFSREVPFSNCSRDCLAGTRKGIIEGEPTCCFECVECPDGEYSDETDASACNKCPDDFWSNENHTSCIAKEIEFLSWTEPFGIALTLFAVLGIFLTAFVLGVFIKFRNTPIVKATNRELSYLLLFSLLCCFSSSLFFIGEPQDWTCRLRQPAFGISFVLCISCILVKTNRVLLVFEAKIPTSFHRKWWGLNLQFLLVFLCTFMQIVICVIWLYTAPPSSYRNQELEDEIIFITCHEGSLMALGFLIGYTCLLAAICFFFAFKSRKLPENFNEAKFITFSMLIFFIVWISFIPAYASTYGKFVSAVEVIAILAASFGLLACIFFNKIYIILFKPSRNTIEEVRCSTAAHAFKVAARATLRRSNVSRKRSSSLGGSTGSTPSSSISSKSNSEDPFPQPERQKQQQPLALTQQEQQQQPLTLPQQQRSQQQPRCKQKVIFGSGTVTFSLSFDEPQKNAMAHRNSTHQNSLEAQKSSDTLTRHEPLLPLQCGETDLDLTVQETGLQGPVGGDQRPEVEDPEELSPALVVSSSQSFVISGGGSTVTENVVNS
Procedure, shortened: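 CHO/hCaSR cells loaded with Calcium 3 dye in HEPES/HBSS (Ca/Mg-free, 2.5 mM probenecid, pH 7.4), then preincubated 15 min with compound (final 1.05–10,000 nM). Challenged with CaCl2 ([…]) and fluorescence followed by FLIPR. IC50 derived from the peak-minus-baseline fluorescence increase.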

[2] = test system: PTH secretion; test: Evaluation of PTH secretion promoting activity in a rat (blood serum PTH after oral administration); type: in vivo; conditions: female F344 rat, oral 3 mg/5 mL/kg, Mean ± S.D., n = 3
Protocol: Evaluation of PTH Secretion Promoting Activity in a Rat
A 10 to 14-week old female F344 rat (Charles River Japan, Inc.) fasted overnight was anesthetized using ether, and blood serum before the administration was prepared by drawing blood from the jugular vein of the animal. Subsequently, the test compound was orally administered at a dose of 3 mg/5 mL/kg using a solvent (0.5% aqueous methyl cellulose solution containing 5% DMA). Blood was drawn from the jugular vein under ether anesthesia at 5, 15, 30, 60, 120, and 240 minutes after the administration of the test compound, and the blood serum was prepared. The blood serum PTH concentration was measured using rat Intact PTH ELISA kit (manufactured by Immutopics, Inc.).

IC50 [1]: ≤ 3.13 µM
SMILES: Cc1ccc(C[C@@H]2CCCN2C[C@@H](O)CO[C@H](C)c2cccc(C(F)(F)F)c2CCC(=O)O)cc1F [Example 9, 3-{2-[(1R)-1-({(2R)-3-[(2S)-2-(3-Fluoro-4-methylbenzyl)pyrrolidin-1-yl]-2-hydroxypropyl}oxy)ethyl]-6-(trifluoromethyl)phenyl}propanoic acid]
Blood Serum PTH (1-84) Concentration, 0 minute [2]: 87.9 ± 25.5 pg/mL | Blood Serum PTH (1-84) Concentration, After 5 minutes [2]: 117.2 ± 32.4 pg/mL | Blood Serum PTH (1-84) Concentration, After 15 minutes [2]: 476.5 ± 99.7 pg/mL | Blood Serum PTH (1-84) Concentration, After 30 minutes [2]: 235.6 ± 99.1 pg/mL | Blood Serum PTH (1-84) Concentration, After 60 minutes [2]: 49.1 ± 16.9 pg/mL | Blood Serum PTH (1-84) Concentration, After 120 minutes [2]: 33.6 ± 5.1 pg/mL | Blood Serum PTH (1-84) Concentration, After 240 minutes [2]: 117.2 ± 27.7 pg/mL

IC50 [1]: ≤ 3.72 µM
SMILES: Cc1ccc(C[C@@H]2CCN2C[C@@H](O)CO[C@H](C)c2ccccc2CCC(=O)O)cc1F [Example 14, 3-{2-[(1R)-1-({(2R)-3-[(2R)-2-(3-Fluoro-4-methylbenzyl)azetidin-1-yl]-2-hydroxypropyl}oxy)ethyl]phenyl}propanoic acid]
Blood Serum PTH (1-84) Concentration, 0 minute [2]: 53.3 ± 4.4 pg/mL | Blood Serum PTH (1-84) Concentration, After 5 minutes [2]: 195.9 ± 16.9 pg/mL | Blood Serum PTH (1-84) Concentration, After 15 minutes [2]: 429.0 ± 111.0 pg/mL | Blood Serum PTH (1-84) Concentration, After 30 minutes [2]: 198.2 ± 61.0 pg/mL | Blood Serum PTH (1-84) Concentration, After 60 minutes [2]: 41.8 ± 5.8 pg/mL | Blood Serum PTH (1-84) Concentration, After 120 minutes [2]: 42.0 ± 8.5 pg/mL | Blood Serum PTH (1-84) Concentration, After 240 minutes [2]: 64.2 ± 6.3 pg/mL

IC50 [1]: ≤ 3.15 µM
SMILES: CC[C@@H](OC[C@H](O)CN1CCC[C@H]1Cc1ccc(Cl)c(F)c1)c1cccc(OC)c1CCC(=O)O [Example 173]

IC50 [1]: ≤ 3.25 µM
SMILES: Cc1cc(CCC(=O)O)c([C@@H](C)OC[C@H](O)CN2CCC[C@H]2Cc2ccc(C)c(Cl)c2)cc1F [Example 174]

IC50 [1]: ≤ 3.12 µM
SMILES: Cc1cc(CCC(=O)O)c([C@@H](C)OC[C@H](O)CN2CCC[C@H]2Cc2ccc(Cl)c(Cl)c2)cc1F [Example 175]

IC50 [1]: ≤ 3.23 µM
SMILES: Cc1ccc(C[C@@H]2CCCN2C[C@@H](O)CO[C@H](C)c2cc(F)c(F)cc2CCC(=O)O)cc1Cl [Example 176]

IC50 [1]: ≤ 3.1 µM
SMILES: C[C@@H](OC[C@H](O)CN1CCC[C@H]1Cc1ccc(Cl)c(Cl)c1)c1cc(F)c(F)cc1CCC(=O)O [Example 177]

IC50 [1]: ≤ 3.12 µM
SMILES: Cc1ccc(C[C@@H]2CCCN2C[C@@H](O)CO[C@H](C)c2ccccc2CCc2nn[nH]n2)cc1F [Example 178, (2R)-1-[(2S)-2-(3-Fluoro-4-methylbenzyl)pyrrolidin-1-yl]-3-[(1R)-1-{2-[2-(2H-tetrazol-5-yl)ethyl]phenyl}ethoxy]propan-2-ol]
